PMC9917443 (eLife, 2023)
Entries after “also recorded” stand apart in the source; their conditions may differ.

Columns and labels:
[1] = tested on: mEPSCs of cultured hippocampal neurons; assay: mEPSC frequency in cultured hippocampal neurons; format: cell-based, mouse; conditions: APP17 250 nM, 0.5 μM TTX, DIV13–16
Experimental: GB1a/2 receptors are abundant at axon terminals where they inhibit neurotransmitter release ([Vigot et al., 2006]). […] A GBR antagonist blocked the effect of APP17 on the mEPSC frequency, supporting a GBR-dependent mechanism. […] We additionally studied whether APP17 at 250 nM influences eEPSC amplitudes in acute hippocampal slices. Postsynaptic GBR-activated K^+ currents were blocked with a Cs^+-based intracellular solution, which allowed to specifically monitor the activity of presynaptic GBRs.
Neuronal cultures and HEK293T cells were prepared as described ([Dinamarca et al., 2019]). Coverslips with hippocampal neurons (DIV 12–15) or HEK293T cells were transferred to a chamber containing a low-K^+ bath solution (in mM): 145 NaCl, 4 KCl, 5 HEPES, 5.5 D-glucose, 1 MgCl2, and 1.8 CaCl2 (pH 7.4 adjusted with NaOH). Recordings were performed at room temperature using borosilicate pipettes of 3–5 MΩ resistance tips, filled with K-gluconate-based pipette solution (in mM): 150 K-gluconate, 1.1 EGTA, 10 HEPES, 10 Tris-phosphocreatine, 0.3 NaGTP, and 4 MgATP (pH 7.2 adjusted with KOH). […] Evoked EPSCs were recorded at –60 mV with a Cs^+-based intracellular solution. […] We recorded mEPSCs in primary neuronal cultures established from embryonic (E15–17) murine hippocampus at DIV13–16 in the presence of 0.5 μM TTX at room temperature ([Dinamarca et al., 2019]). […]

CA1 pyramidal cells = conditions: anesthetized mice, two-photon Ca^2+ imaging; ref Rice et al., 2019; cited from earlier work
Text: GBRs are composed of a GB1a or GB1b subunit with a GB2 subunit, which generates heterodimeric GB1a/2 and GB1b/2 receptors ([Pin and Bettler, 2016]). GB1a differs from GB1b by the presence of two N-terminal sushi domains (SD1/2). GB1a/2 and GB1b/2 receptors predominantly localize to pre- and postsynaptic sites, respectively ([Vigot et al., 2006]). APP and sAPP bind to SD1 of GB1a ([Schwenk et al., 2016]; [Dinamarca et al., 2019]; [Rice et al., 2019]).

[2] = tested on: spontaneous neuronal activity in the auditory cortex; assay: two-photon Ca^2+ imaging of auditory cortex in anesthetized mice; conditions: 5 µM perfused over cortex; peptides 60 min, baclofen 15 min
[3] = tested on: mEPSCs in brain slices / cultured hippocampal neurons; conditions: cultured hippocampal neurons APP17 250 nM, ref Rice et al., 2019; cited from earlier work
Text: GBRs are composed of a GB1a or GB1b subunit with a GB2 subunit, which generates heterodimeric GB1a/2 and GB1b/2 receptors ([Pin and Bettler, 2016]). GB1a differs from GB1b by the presence of two N-terminal sushi domains (SD1/2). GB1a/2 and GB1b/2 receptors predominantly localize to pre- and postsynaptic sites, respectively ([Vigot et al., 2006]). APP and sAPP bind to SD1 of GB1a ([Schwenk et al., 2016]; [Dinamarca et al., 2019]; [Rice et al., 2019]). Synthetic APP peptides of 9 or 17 amino acid residues, termed APP9 and APP17, are sufficient for binding and inducing a stable conformation in SD ... || GB1a/2 receptors are abundant at axon terminals where they inhibit neurotransmitter release ([Vigot et al., 2006]). […] A GBR antagonist blocked the effect of APP17 on the mEPSC frequency, supporting a GBR-dependent mechanism.

[4] = tested on: GB1a/2 receptors in HEK293T cells; assay: APP17-TMR binding / displacement at GB1a/2 receptors in HEK293T cells; conditions: 10 μM peptide
Experimental: Transfected HEK293T cells expressing Flag-GB1a and Flag-GB2 were seeded into 96-well microplates (Greiner Bio-One, Kremsmünster, Austria) at 50,000 cells/well. After 18 hr, peptides were mixed with conditioned medium at the following final concentrations: APP17-TMR (1 µM) with either APP17 (10 µM), sc-APP17 (10 µM), or PBS (vehicle); sc-APP17-TMR (1 µM) in PBS was used as a negative control. After removal of medium, peptide mixes were added to the wells and cells incubated in the dark for 1 hr at room temperature. After removal of the peptides, PBS with MgCl2 and CaCl2 (Sigma-Aldrich) was added to the wells. TMR fluorescence was monitored with a Spark microplate reader (Tecan Group, Männerdorf, Switzerland) using a monochromator (Excitation 544 nm, […] bandwidth; detection […], 25 nm bandwidth). TMR fluorescence was determined after subtraction of the sc-APP17-TMR fluorescence measured at HEK293T cells transfected with pCI plasmid.

GB1a/2 receptors = GB1a/2 receptors (Homo sapiens, UniProt O75899+Q9UBS5); assay: Ca^2+ mobilization assay (Calcium 6) in HEK293T cells expressing GB1a/2; format: cell-based; set-up: Flag (N); expressed in transfected cells; host or cells: HEK293T cells stably expressing chimeric Gαqi; conditions: 1 or 10 μM
Chain of GB1a/2 receptors (Q9UBS5 15-961 limits assumed): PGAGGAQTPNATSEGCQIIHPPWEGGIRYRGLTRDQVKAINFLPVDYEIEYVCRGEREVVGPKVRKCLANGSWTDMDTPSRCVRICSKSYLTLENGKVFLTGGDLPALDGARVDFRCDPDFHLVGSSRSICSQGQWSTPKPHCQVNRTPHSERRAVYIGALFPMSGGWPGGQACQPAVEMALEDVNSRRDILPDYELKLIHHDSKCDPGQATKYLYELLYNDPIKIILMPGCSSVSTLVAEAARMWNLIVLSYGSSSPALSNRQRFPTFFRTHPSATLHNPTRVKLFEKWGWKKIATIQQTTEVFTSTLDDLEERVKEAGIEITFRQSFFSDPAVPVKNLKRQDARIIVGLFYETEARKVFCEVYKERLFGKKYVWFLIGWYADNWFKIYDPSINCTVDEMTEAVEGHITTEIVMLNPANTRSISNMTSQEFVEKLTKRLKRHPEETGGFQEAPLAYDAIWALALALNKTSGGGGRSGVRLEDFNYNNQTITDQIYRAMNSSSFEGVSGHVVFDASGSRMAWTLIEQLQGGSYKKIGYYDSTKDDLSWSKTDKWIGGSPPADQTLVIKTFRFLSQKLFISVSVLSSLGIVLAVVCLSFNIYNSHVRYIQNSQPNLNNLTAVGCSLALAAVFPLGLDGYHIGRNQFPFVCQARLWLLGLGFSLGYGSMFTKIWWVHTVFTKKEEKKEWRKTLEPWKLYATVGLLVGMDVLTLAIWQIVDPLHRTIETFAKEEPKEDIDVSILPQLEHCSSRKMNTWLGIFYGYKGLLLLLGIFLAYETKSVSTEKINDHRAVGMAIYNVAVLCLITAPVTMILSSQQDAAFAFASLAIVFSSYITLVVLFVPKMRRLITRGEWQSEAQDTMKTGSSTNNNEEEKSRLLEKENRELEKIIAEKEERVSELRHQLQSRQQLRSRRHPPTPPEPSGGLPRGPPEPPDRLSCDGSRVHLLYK
Chain of GB1a/2 receptors (O75899 42-941 partner): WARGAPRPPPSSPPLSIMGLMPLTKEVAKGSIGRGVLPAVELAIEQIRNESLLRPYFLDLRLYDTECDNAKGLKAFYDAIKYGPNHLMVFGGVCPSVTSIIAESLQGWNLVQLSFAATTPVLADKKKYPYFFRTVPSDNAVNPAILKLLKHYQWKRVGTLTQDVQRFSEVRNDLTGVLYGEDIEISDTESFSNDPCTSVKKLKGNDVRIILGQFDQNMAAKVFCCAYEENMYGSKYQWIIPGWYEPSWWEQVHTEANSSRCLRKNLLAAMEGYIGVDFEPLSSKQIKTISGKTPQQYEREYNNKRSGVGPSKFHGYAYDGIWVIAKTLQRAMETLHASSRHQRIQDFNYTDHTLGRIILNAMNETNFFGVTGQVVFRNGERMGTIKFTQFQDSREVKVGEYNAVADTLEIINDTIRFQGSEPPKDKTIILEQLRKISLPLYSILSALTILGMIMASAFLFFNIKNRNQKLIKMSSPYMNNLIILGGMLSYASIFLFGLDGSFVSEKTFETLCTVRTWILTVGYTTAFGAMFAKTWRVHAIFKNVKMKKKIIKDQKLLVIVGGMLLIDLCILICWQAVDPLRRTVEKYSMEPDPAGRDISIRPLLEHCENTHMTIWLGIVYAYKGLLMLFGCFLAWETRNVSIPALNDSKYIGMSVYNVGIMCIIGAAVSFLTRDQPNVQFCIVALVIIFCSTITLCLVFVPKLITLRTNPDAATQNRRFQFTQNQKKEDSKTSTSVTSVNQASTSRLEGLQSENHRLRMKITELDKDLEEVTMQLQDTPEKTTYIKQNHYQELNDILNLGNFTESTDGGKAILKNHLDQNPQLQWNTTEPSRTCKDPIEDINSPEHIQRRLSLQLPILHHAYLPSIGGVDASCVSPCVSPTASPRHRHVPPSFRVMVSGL

Ac-DDSDVWWGGADTDYADG-NH2 [APP17]
mEPSC frequency (in words) [1]: unable to detect a significant effect of APP17 on the mEPSC frequency | neuronal activity (in words) (CA1 pyramidal cells): suppresses neuronal activity of CA1 pyramidal cells in anesthetized mice; also recorded: inhibited neuronal activity in the hippocampus of anesthetized mice | spontaneous Ca^2+ transients (in words) [2]: no significant effect compared to ACSF | mEPSC frequency (in words) [3]: reduce the frequency of mEPSCs; also recorded: reduced the frequency of miniature excitatory postsynaptic currents (mEPSCs) in brain slices | displacement of 1 μM APP17-TMR from GB1a/2 receptors (in words) [4]: displaced 1 μM APP17-TMR from GB1a/2 receptors | intracellular Ca^2+ mobilization (in words) (GB1a/2 receptors): did not induce significant Ca^2+ mobilization
